# Assay results as given in publication PMC12910498 (ACS pharmacology & translational science, 2026).
# Like-named read-outs stand apart in the source and are kept apart here.
# Experiments:
# [1] = Pharmacokinetics study in rats (plasma and brain); format: in vivo, Sprague−Dawley rats; settings: rat, 10 mg/kg IP
# Experimental: Given their adequate in vitro stability profiles, we next evaluated the in vivo pharmacokinetic profiles of 14, 15, 17, and 18 in rats. Sprague−Dawley rats were dosed with 5 mg/kg (14, 15, 17) or 10 mg/kg (18), i.p., and plasma and brain levels of each drug were measured 0−6 h postdose.
# All animal experiments were performed following the protocols evaluated and approved by the Animal Care and Use Committee at Johns Hopkins University (Ethics Approval Number: RA24M403). Pharmacokinetic studies in Sprague−Dawley (SD) rats were conducted according to protocols approved. SD rats obtained from Harlan were maintained on a 12 h light−dark cycle with ad libitum access to food and water. Test compound was administered via i.p. injection at a dose of 10 mg/kg (100% saline vehicle, 10 mL/kg volume). The rats were sacrificed at specified time points (0.25, 0.5 h, 1, 2, 4, and 6 h) post drug administration. For the collection of plasma and brain tissue, animals were euthanized with CO2, and blood samples were collected in heparinized microtubes by cardiac puncture. Brains were dissected and immediately flash-frozen (−80 °C). Blood samples were spun at 2000g for 15 min, and plasma was removed and stored at −80 °C until analysis (as described below).
# Quantitation of triazole analogs 14, 15, 17, and 18 was performed using liquid chromatography with tandem mass spectrometry (LC/MS-MS) methods. Briefly, calibration standards were prepared using respective tissue (naïve plasma and brain) with additions of the test compounds. For quantifying the test compounds in the pharmacokinetic samples, plasma samples (20 μL) were processed using a single liquid extraction method by addition of 100 μL of acetonitrile containing internal standard (losartan: 0.5 μM), followed by vortex-mixing for 30 s and then centrifugation at 10,000g for 10 min at 4 °C. Brain tissues were diluted 1:5 w/v with acetonitrile containing losartan (0.5 μm) and homogenized, followed by vortex-mixing and centrifugation at 10,000g for 10 min at 4 °C. A 50 μL aliquot of the supernatant was diluted with 50 μL of water and transferred to 250 μL polypropylene autosampler vials sealed with Teflon caps. Two μL of the sample was injected into the LC/MS/MS system for analysis. Chromatographic analysis was performed using an Accela ultra high-performance system consisting of an analytical pump and an autosampler coupled with a TSQ Vantage mass spectrometer. […] The mobile phase consisted of 0.1% formic acid in acetonitrile and 0.1% formic acid in water with gradient elution, starting with 10% organic phase (from 0 to 1 min) linearly increasing to 95% (from 1 to 2 min), and re-equilibrating to 10% by 3 min. The total run time for each analyte was 3.5 min. Pumps were operated at a flow rate of 0.4 mL/min. […] Plasma concentrations (nmol/mL) as well as brain tissue concentrations (nmol/g) were determined and plots of mean plasma concentration versus time were constructed. Noncompartmental analysis modules in Phoenix WinNonlin version 7.0 (Certara USA, Inc., Princeton, NJ) were used to quantify exposures (AUC0−t) and half-life (t1/2).
# human D4R [2] = target: T1, human D4R (Homo sapiens, UniProt P21917)
# T1 sequence (P21917 1-419): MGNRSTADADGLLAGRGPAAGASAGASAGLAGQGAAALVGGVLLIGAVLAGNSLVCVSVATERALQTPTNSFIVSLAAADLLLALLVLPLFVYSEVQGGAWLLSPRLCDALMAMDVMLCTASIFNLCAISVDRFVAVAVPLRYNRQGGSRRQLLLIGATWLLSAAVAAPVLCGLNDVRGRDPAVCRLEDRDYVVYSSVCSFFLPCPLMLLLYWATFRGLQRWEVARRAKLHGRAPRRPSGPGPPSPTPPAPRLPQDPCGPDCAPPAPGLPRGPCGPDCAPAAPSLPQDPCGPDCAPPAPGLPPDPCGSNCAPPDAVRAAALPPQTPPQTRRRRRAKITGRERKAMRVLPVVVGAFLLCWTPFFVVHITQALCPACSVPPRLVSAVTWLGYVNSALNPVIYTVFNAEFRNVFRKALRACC
# D1 = target: T2, D1 (Homo sapiens, UniProt P21728); assay: PDSP primary screen and secondary assay, D1; format: binding
# T2 construct: Psychoactive Drug Screening Program (PDSP)
# Text: (§1) Receptor Primary Secondary Primary Secondary Primary Secondary Primary Secondary screen assay screen assay screen assay screen assay […]
# (§2) inhibition in primary assessment.
# D5 = target: T3, D5 (Homo sapiens, UniProt P21918); assay: PDSP primary screen, D5; format: binding; settings: 10 µM compound
# T3 construct: Psychoactive Drug Screening Program (PDSP)
# Text: as §1, §2
# human D2LR = human D2LR (Homo sapiens, UniProt P14416); assay: biochemical
# human D4R [3] = target: T1, human D4R; assay: [3H]N-methylspiperone radioligand competition binding, hD4R membranes
# human D4R [4] = target: T1, human D4R; assay: DiscoverX PathHunter β-arrestin recruitment assay, D4R
# T2 sequence (P21728 whole entry): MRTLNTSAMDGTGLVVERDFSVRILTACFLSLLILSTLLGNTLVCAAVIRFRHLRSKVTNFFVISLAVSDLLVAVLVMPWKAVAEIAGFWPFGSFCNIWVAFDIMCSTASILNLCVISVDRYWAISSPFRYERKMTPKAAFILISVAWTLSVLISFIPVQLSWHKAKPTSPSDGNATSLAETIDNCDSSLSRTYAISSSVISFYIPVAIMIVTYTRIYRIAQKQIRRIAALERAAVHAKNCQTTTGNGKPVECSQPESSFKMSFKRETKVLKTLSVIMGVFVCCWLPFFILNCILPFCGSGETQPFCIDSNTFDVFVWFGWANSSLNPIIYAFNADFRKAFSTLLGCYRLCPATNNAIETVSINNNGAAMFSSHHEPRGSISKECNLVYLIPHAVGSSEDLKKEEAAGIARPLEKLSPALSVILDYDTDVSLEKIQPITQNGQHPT
# T3 sequence (P21918 whole entry): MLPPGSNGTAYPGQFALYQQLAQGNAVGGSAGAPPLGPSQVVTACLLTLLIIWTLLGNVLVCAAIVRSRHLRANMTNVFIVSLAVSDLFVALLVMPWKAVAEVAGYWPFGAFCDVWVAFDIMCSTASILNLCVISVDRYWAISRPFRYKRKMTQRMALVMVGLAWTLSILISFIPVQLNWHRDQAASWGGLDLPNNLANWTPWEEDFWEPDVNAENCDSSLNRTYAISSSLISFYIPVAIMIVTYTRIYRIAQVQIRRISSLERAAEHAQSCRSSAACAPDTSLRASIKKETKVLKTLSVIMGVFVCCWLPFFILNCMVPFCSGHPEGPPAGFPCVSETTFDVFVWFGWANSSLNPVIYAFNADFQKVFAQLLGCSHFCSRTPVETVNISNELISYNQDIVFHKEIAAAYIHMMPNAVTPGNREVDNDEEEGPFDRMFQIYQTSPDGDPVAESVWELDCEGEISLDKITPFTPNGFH
# Sequence of human D2LR (P14416 whole entry): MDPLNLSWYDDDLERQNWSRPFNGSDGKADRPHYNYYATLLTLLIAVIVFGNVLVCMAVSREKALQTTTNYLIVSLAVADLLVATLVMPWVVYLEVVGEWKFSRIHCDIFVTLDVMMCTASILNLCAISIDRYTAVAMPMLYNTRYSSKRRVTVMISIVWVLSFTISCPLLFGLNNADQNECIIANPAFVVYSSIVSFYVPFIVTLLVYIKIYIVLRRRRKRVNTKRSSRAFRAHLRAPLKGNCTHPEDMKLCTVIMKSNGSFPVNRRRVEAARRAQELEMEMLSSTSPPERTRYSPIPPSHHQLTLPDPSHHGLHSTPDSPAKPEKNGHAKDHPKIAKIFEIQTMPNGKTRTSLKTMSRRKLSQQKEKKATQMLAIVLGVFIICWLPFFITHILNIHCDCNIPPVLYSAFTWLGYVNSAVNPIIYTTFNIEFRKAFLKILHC
smiles,measurement,setting,value
"Cc1cccc(-n2cc(CN3CCN(c4cccc5ccccc45)CC3)nn2)c1 [Compound 18, 1-(Naphthalen-1-yl)-4-((1-(m-tolyl)-1H-1,2,3-triazol-4-yl)methyl)piperazine]",Kp,"[1]; Sprague-Dawley, brain and plasma, ip, 10 mg/kg, AUC brain/plasma, read-out: brain: Plasma ratio",> 2.6
same,half-life,"[1]; Sprague-Dawley, brain, ip, 10 mg/kg, brain, read-out: half-life (h) brain (converted)",2.46 h
same,half-life,"[1]; Sprague-Dawley, plasma, ip, 10 mg/kg, plasma, read-out: half-life (h) plasma (converted)",2.54 h
same,half-life,"[1]; Sprague-Dawley, plasma, ip, 10 mg/kg, tissue not specified, read-out: half-life (converted)",~2.5 h
same,Tmax,"[1]; Sprague-Dawley, brain, read-out: Tmax (h) brain",0.5 h
same,AUC,"[1]; Sprague-Dawley, plasma",1.36 ± 0.29 µM·h
same,Cmax,"[1]; Sprague-Dawley, plasma",700 ± 90 nM
same,Tmax,"[1]; Sprague-Dawley, plasma, read-out: Tmax (h) plasma",0.5 h
same,brain: Plasma ratio,"[1]; AUC brain/plasma, 10 mg/kg",2.63
same,AUC brain,[1]; brain,3.57 ± 0.77 nmol·h/g
same,Cmax brain,[1]; brain,2.08 ± 0.20 nmol/g
same,peak in vivo brain concentrations expected,[1]; from brain Cmax,greater than 2.0 μM
same,EC50,human D4R [2],2140 ± 1070 nM
same,IC50,human D4R [2],904 ± 102 nM
same,D4R Ant. (%),"human D4R [2]; cAMP, antagonist mode, 10 μM forskolin and 10 nM dopamine, normalized to spiperone",72 ± 5%
same,Emax,human D4R [2]; read-out: D4R Emax (%),24 ± 7%
same,Ki,D1,783 nM
same,inhibition at 10 µM,D1; 10 µM compound,59.3%
same,inhibition at 10 µM,D5,25.7%
same,Ki,human D2LR,6540 ± 5370 nM
same,Ki,human D4R [3],4.33 ± 1.02 nM
same,Selectivity D2R/D4R,human D4R [3]; ratio of Ki values,1510
same,Selectivity D3R/D4R,human D4R [3]; ratio of Ki values,2504
same,EC50,human D4R [4],> 10000 nM
same,IC50,human D4R [4],3600 ± 1100 nM
same,D4R average activity at the highest tested dose,"human D4R [4]; agonist mode, at 10 μM (Emax ND)",ND (8% at 10 μM)
same,D4R Ant. (%),"human D4R [4]; antagonist mode, EC80 dopamine (1 μM), normalized to spiperone",92.1 ± 12.1%
